Ten molecules from patent US20010046987A1, “Oxazolidinones having a sulfoximine functionality” (priority 1999, published 2001) can be followed below.

≈ marks a conversion by molar mass, not a printed value.

Broadly, the melting point is the temperature, or range, at which the solid turns liquid.

One series concerns Staphylococcus aureus. Description: MIC by agar dilution, SAUR 9213. It is filed as cell-based. The conditions noted are these: for MIC: Staphylococcus aureus, strain SAUR 9213, read-out: Antibacterial Activity Minimum Inhibitory Concentration SAUR 9213; for Antibacterial Activity Minimum Inhibitory Concentration SAUR 9213: strain SAUR 9213. The text has this:
(§1) The in vitro activity of compounds of this invention can be assessed by standard testing procedures such as the determination of minimum inhibitory concentration (MIC) by agar dilution as described in “Approved Standard.
(In general: In agar dilution, organisms are placed on agar that contains the substance at set levels.)

A further series deals with Enterococcus faecalis. The series is described as follows: MIC by agar dilution, EFAE 9217. It is filed as cell-based. The conditions noted are these: for MIC: Enterococcus faecalis, strain EFAE 9217, read-out: Antibacterial Activity Minimum Inhibitory Concentration EFAE 9217; for Antibacterial Activity Minimum Inhibitory Concentration EFAE 9217: strain EFAE 9217.
Description: as §1

The next series concerns Streptococcus pyogenes. The series is described as follows: MIC by agar dilution, SPYO 152. The conditions noted are these: for MIC: Streptococcus pyogenes, strain SPYO 152, read-out: Antibacterial Activity Minimum Inhibitory Concentration SPYO 152; for Antibacterial Activity Minimum Inhibitory Concentration SPYO 152: strain SPYO 152. It is filed as cell-based.
Description: as §1

For another series, the system named is H. influenzae. Description: MIC by agar dilution, HINF 30063. Type of series: cell-based. Conditions: for MIC: Haemophilus influenzae, strain HINF 30063, read-out: Antibacterial Activity Minimum Inhibitory Concentration HINF 30063; for Antibacterial Activity Minimum Inhibitory Concentration HINF 30063: strain HINF 30063.
Description: as §1

Another series relates to Streptococcus pneumoniae. Description: MIC by agar dilution, SPNE 9912. Type of series: cell-based. Conditions: for MIC: Streptococcus pneumoniae, strain SPNE 9912, read-out: Antibacterial Activity Minimum Inhibitory Concentration SPNE 9912; for Antibacterial Activity Minimum Inhibitory Concentration SPNE 9912: strain SPNE 9912.
Description: as §1

Series [1] relates to Staphylococcus epidermidis. The series is described as follows: MIC by agar dilution, SEPI 30593. Type of series: cell-based. The conditions noted are these: for MIC: Staphylococcus epidermidis, strain SEPI 30593, read-out: Antibacterial Activity Minimum Inhibitory Concentration SEPI 30593; for Antibacterial Activity Minimum Inhibitory Concentration SEPI 30593: strain SEPI 30593.
Description: as §1

A further series deals with Moraxella catarrhalis. Description: MIC by agar dilution, MCAT 30607. It is filed as cell-based. The conditions noted are these: for MIC: Moraxella catarrhalis, strain MCAT 30607, read-out: Antibacterial Activity Minimum Inhibitory Concentration MCAT 30607; for Antibacterial Activity Minimum Inhibitory Concentration MCAT 30607: strain MCAT 30607.
Description: as §1

The next series deals with Enterococcus faecium. The series is described as follows: MIC by agar dilution, EFAE 12712. Conditions: for MIC: Enterococcus faecium, strain EFAE 12712, read-out: Antibacterial Activity Minimum Inhibitory Concentration EFAE 12712; for Antibacterial Activity Minimum Inhibitory Concentration EFAE 12712: strain EFAE 12712. Type of series: cell-based.
Description: as §1

Molecule `CCC(=S)NC[C@H]1CN(c2ccc([C@H]3CC[S@+2]([O-])([N-]CC(N)=O)CC3)c(F)c2)C(=O)O1` [Example 23, N-({(5S)-3-[3-Fluoro-4-[1-[[(aminocarbonyl)methyl]imino]-1-oxidohexahydro-1λ^4-thiopyran-4-yl]phenyl]-2-oxo-1,3-oxazolidin-5-yl}methyl)propanethioamide, Z-isomer] registered a melting point of 221 to 222 °C. Further, in the series with Staphylococcus aureus, the MIC was 2 µg/mL (≈ 4.25 µM). In addition, in the series with Enterococcus faecalis, the MIC is 0.5 µg/mL (≈ 1.06 µM). Further, the MIC in the series with Streptococcus pyogenes was 0.5 µg/mL (≈ 1.06 µM). In addition, the MIC in the series with H. influenzae worked out at 4 µg/mL (≈ 8.5 µM). In addition, the MIC with Streptococcus pneumoniae is 0.25 µg/mL (≈ 0.531 µM). Besides, in series [1], the MIC is 2 µg/mL (≈ 4.25 µM). In addition, the MIC with Moraxella catarrhalis was determined as 4 µg/mL (≈ 8.5 µM). In addition, the MIC with Enterococcus faecium was 1 µg/mL (≈ 2.12 µM).

For `N=S1(=O)CCN(c2ccc(N3C[C@H](CNC(=S)C4CC4)OC3=O)cc2F)CC1` [Example 3, N-({(5S)-3-[3-Fluoro-4-(1-imino-1-oxido-1λ^4,4-thiazinan-4-yl)phenyl]-2-oxo-1,3-oxazolidin-5-yl}methyl)cyclopropanecarbothioamide], the melting point is 209 to 210 °C (dec.). In addition, the MIC in the series with Staphylococcus aureus was determined as 1 µg/mL (≈ 2.34 µM). Also, the MIC with Enterococcus faecalis worked out at 1 µg/mL (≈ 2.34 µM). The MIC in the series on Streptococcus pyogenes was 0.25 µg/mL (≈ 0.586 µM). The MIC with H. influenzae was determined as 4 µg/mL (≈ 9.38 µM). Moreover, the MIC in the series with Streptococcus pneumoniae is 0.25 µg/mL (≈ 0.586 µM). Besides, the MIC in series [1] came to 0.25 µg/mL (≈ 0.586 µM). In addition, the MIC with Moraxella catarrhalis was 1 µg/mL (≈ 2.34 µM). Also, the MIC in the series on Enterococcus faecium came out at 0.5 µg/mL (≈ 1.17 µM).

`CC[N-][S@+2]1([O-])CC[C@@H](c2ccc(N3C[C@H](CNC(=S)CC)OC3=O)cc2F)CC1` [Example 15, N-({(5S)-3-[3-Fluoro-4-[1-(ethylimino)-1-oxidohexahydro-1λ^4-thiopyran-4-yl]phenyl]-2-oxo-1,3-oxazolidin-5-yl}methyl)propanethioamide, Z-isomer] had a melting point of 200 to 201 °C. The MIC with Staphylococcus aureus was found to be 2 µg/mL (≈ 4.53 µM). Moreover, the MIC in the series on Enterococcus faecalis came to 1 µg/mL (≈ 2.26 µM). Moreover, the MIC in the series on Streptococcus pyogenes came to 0.5 µg/mL (≈ 1.13 µM). Further, the MIC in the series with H. influenzae came out at 8 µg/mL (≈ 18.1 µM). Besides, in the series on Streptococcus pneumoniae, the MIC came out at 0.5 µg/mL (≈ 1.13 µM). In addition, the MIC in series [1] worked out at 1 µg/mL (≈ 2.26 µM). Further, in the series on Moraxella catarrhalis, the MIC came out at 2 µg/mL (≈ 4.53 µM). The MIC with Enterococcus faecium turned out to be 1 µg/mL (≈ 2.26 µM).

`CCC(=S)NCC1CN(c2ccc(C3CC[S+2]([O-])([N-]C(=O)OC)CC3)c(F)c2)C(=O)O1` [Example 19, N-({(5S)-3-[3-Fluoro-4-(1-[(methoxycarbonyl)imino]-1-oxidohexahydro-1λ^4-thiopyran-4-yl)phenyl]-2-oxo-1,3-oxazolidin-5-yl}methyl)propanethioamide, Z-isomer]: the melting point was 217 to 218 °C. In addition, the MIC in the series with Staphylococcus aureus was 1 µg/mL (≈ 2.12 µM). In the series on Streptococcus pyogenes, the MIC came to 0.25 µg/mL (≈ 0.53 µM). For the same molecule, in the series with H. influenzae, the MIC turned out to be 2 µg/mL (≈ 4.24 µM). Besides, the MIC in the series on Streptococcus pneumoniae is 0.25 µg/mL (≈ 0.53 µM). The MIC in series [1] is 0.5 µg/mL (≈ 1.06 µM). For the same molecule, the MIC in the series with Moraxella catarrhalis came to 2 µg/mL (≈ 4.24 µM). Besides, the MIC with Enterococcus faecium was found to be 1 µg/mL (≈ 2.12 µM).

As to `CCC(=S)NC[C@H]1CN(c2ccc(N3CCS(=O)(=NC)CC3)c(F)c2)C(=O)O1` [Example 25, N-[((5S)-3-{3-Fluoro-4-[1-(methylimino)-1-oxido-1λ^4,4-thiazinan-4-yl]phenyl}-2-oxo-1,3-oxazolidin-5-yl)methyl]propanethioamide], the MIC is 2 µg/mL (≈ 4.67 µM) in the series with Staphylococcus aureus; 1 µg/mL (≈ 2.33 µM) in the series on Enterococcus faecalis; 0.5 µg/mL (≈ 1.17 µM) in the series on Streptococcus pyogenes; 4 µg/mL (≈ 9.33 µM) with H. influenzae; 0.25 µg/mL (≈ 0.583 µM) with Streptococcus pneumoniae; 0.5 µg/mL (≈ 1.17 µM) in series [1]. Further, the MIC with Moraxella catarrhalis came out at 4 µg/mL (≈ 9.33 µM); with Enterococcus faecium, 1 µg/mL (≈ 2.33 µM).

For the molecule `CCOC(=O)CN=S1(=O)CCC(c2ccc(N3C[C@H](CNC(=S)CC)OC3=O)cc2F)CC1` (single isomer, unassigned) [Example 20], the “Antibacterial Activity Minimum Inhibitory Concentration SAUR 9213” value with Staphylococcus aureus came out at 2 µg/mL. Further, the “Antibacterial Activity Minimum Inhibitory Concentration EFAE 9217” value with Enterococcus faecalis stood at 1 µg/mL. Moreover, the “Antibacterial Activity Minimum Inhibitory Concentration SPYO 152” value in the series with Streptococcus pyogenes came out at 16 µg/mL. Moreover, the “Antibacterial Activity Minimum Inhibitory Concentration HINF 30063” value in the series on H. influenzae is 8 µg/mL. For the same molecule, the “Antibacterial Activity Minimum Inhibitory Concentration SPNE 9912” value in the series on Streptococcus pneumoniae was 4 µg/mL. Moreover, in [1], the “Antibacterial Activity Minimum Inhibitory Concentration SEPI 30593” value came out at 1 µg/mL. Besides, the “Antibacterial Activity Minimum Inhibitory Concentration MCAT 30607” value in the series on Moraxella catarrhalis was determined as 4 µg/mL. Besides, the “Antibacterial Activity Minimum Inhibitory Concentration EFAE 12712” value in the series on Enterococcus faecium was determined as 1 µg/mL.

`CC(=O)N=S1(=O)CCN(c2ccc(N3C[C@H](CNC(C)=O)OC3=O)cc2F)CC1` [PREP 2, N-({(5S)-3-[3-Fluoro-4-(1-acetylimino-1-oxido-1λ^4,4-thiazinan-4-yl)phenyl]-2-oxo-1,3-oxazolidin-5-yl}methyl)acetamide]: the “Antibacterial Activity Minimum Inhibitory Concentration SAUR 9213” value in the series on Staphylococcus aureus was 16 µg/mL. Besides, the “Antibacterial Activity Minimum Inhibitory Concentration EFAE 9217” value with Enterococcus faecalis turned out to be 2 µg/mL. Further, in the series with Streptococcus pyogenes, the “Antibacterial Activity Minimum Inhibitory Concentration SPYO 152” value was 2 µg/mL. For the same molecule, the “Antibacterial Activity Minimum Inhibitory Concentration HINF 30063” value with H. influenzae was found to be 32 µg/mL. Further, the “Antibacterial Activity Minimum Inhibitory Concentration SPNE 9912” value with Streptococcus pneumoniae is 1 µg/mL. The “Antibacterial Activity Minimum Inhibitory Concentration SEPI 30593” value in series [1] was 2 µg/mL. In addition, the “Antibacterial Activity Minimum Inhibitory Concentration MCAT 30607” value with Moraxella catarrhalis amounted to 8 µg/mL. The “Antibacterial Activity Minimum Inhibitory Concentration EFAE 12712” value with Enterococcus faecium was 4 µg/mL.

With `CC(=O)NC[C@H]1CN(c2ccc(N3CCS(=N)(=O)CC3)c(F)c2)C(=O)O1` [PREP 1, N-({(5S)-3-[3-Fluoro-4-(1-imino-1-oxido-1λ^4,4-thiazinan-4-yl)phenyl]-2-oxo-1,3-oxazolidin-5-yl}methyl)acetamide], the “Antibacterial Activity Minimum Inhibitory Concentration SAUR 9213” value in the series on Staphylococcus aureus turned out to be 16 µg/mL. Moreover, the “Antibacterial Activity Minimum Inhibitory Concentration EFAE 9217” value in the series with Enterococcus faecalis amounted to 8 µg/mL. The “Antibacterial Activity Minimum Inhibitory Concentration SPYO 152” value in the series with Streptococcus pyogenes is 2 µg/mL. For the same molecule, in the series with H. influenzae, the “Antibacterial Activity Minimum Inhibitory Concentration HINF 30063” value was determined as 16 µg/mL. For the same molecule, in the series with Streptococcus pneumoniae, the “Antibacterial Activity Minimum Inhibitory Concentration SPNE 9912” value came to 1 µg/mL. Moreover, in series [1], the “Antibacterial Activity Minimum Inhibitory Concentration SEPI 30593” value was 4 µg/mL. In the series on Moraxella catarrhalis, the “Antibacterial Activity Minimum Inhibitory Concentration MCAT 30607” value was determined as 8 µg/mL. Besides, the “Antibacterial Activity Minimum Inhibitory Concentration EFAE 12712” value with Enterococcus faecium is 4 µg/mL.

With `CC(=O)NC[C@H]1CN(c2ccc(C3CCS(=O)(=NC(=O)NCc4ccccc4)CC3)c(F)c2)C(=O)O1` (single isomer, unassigned) [Example 34], the “Antibacterial Activity Minimum Inhibitory Concentration SAUR 9213” value in the series on Staphylococcus aureus is 16 µg/mL. Moreover, the “Antibacterial Activity Minimum Inhibitory Concentration EFAE 9217” value in the series with Enterococcus faecalis is 4 µg/mL. Besides, the “Antibacterial Activity Minimum Inhibitory Concentration SPYO 152” value in the series with Streptococcus pyogenes is 2 µg/mL. In the series with H. influenzae, the “Antibacterial Activity Minimum Inhibitory Concentration HINF 30063” value amounted to 32 µg/mL. Also, the “Antibacterial Activity Minimum Inhibitory Concentration SPNE 9912” value in the series on Streptococcus pneumoniae was found to be 1 µg/mL. In addition, the “Antibacterial Activity Minimum Inhibitory Concentration SEPI 30593” value in series [1] was 2 µg/mL. Besides, the “Antibacterial Activity Minimum Inhibitory Concentration MCAT 30607” value in the series with Moraxella catarrhalis was 16 µg/mL. Besides, in the series on Enterococcus faecium, the “Antibacterial Activity Minimum Inhibitory Concentration EFAE 12712” value was 4 µg/mL.

`N=S1(=O)CCC(c2ccc(N3C[C@H](CNC(=S)C4CC4)OC3=O)cc2F)CC1` (single isomer, unassigned) [Example 11]: the “Antibacterial Activity Minimum Inhibitory Concentration SAUR 9213” value in the series on Staphylococcus aureus amounted to 1 µg/mL. Further, the “Antibacterial Activity Minimum Inhibitory Concentration EFAE 9217” value in the series on Enterococcus faecalis was found to be 0.5 µg/mL. In the series on Streptococcus pyogenes, the “Antibacterial Activity Minimum Inhibitory Concentration SPYO 152” value came to 0.25 µg/mL. Further, the “Antibacterial Activity Minimum Inhibitory Concentration HINF 30063” value in the series with H. influenzae was determined as 4 µg/mL. The “Antibacterial Activity Minimum Inhibitory Concentration SPNE 9912” value in the series on Streptococcus pneumoniae came out at 0.25 µg/mL. Besides, the “Antibacterial Activity Minimum Inhibitory Concentration SEPI 30593” value in series [1] was determined as 0.5 µg/mL. Also, the “Antibacterial Activity Minimum Inhibitory Concentration MCAT 30607” value in the series on Moraxella catarrhalis stood at 1 µg/mL. Also, the “Antibacterial Activity Minimum Inhibitory Concentration EFAE 12712” value with Enterococcus faecium came out at 0.5 µg/mL.
